Source: patent publication US20260265248A1, “NOVEL PD-L1 INHIBITORS” (AFFIRMA BIOTECH S. L., priority 2023, published 2026)

These molecules were tested against T1, PD-1/PD-L1 (Homo sapiens, UniProt Q9NZQ7) (assay: PD1-PDL1 HTRF assay). Conditions: PD-1/PD-L1 homogenous time-resolved fluorescence (HTRF) binding assay; Tag1-PDL1 5 nM, Tag2-PD1 50 nM.
T1 construct: purchased CisBio
T1 sequence (Q9NZQ7 19-238 limits assumed): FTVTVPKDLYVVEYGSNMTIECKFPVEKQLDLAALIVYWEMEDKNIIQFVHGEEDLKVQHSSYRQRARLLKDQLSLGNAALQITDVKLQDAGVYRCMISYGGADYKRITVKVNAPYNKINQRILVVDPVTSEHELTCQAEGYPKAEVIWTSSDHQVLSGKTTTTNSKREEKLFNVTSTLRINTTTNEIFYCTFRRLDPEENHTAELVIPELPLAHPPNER
Procedure, shortened: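 Compound (8 concentrations) was preincubated 15 min at room temperature with Tag1-PD-L1 and Tag2-PD-1, added as 5 nM and 50 nM solutions. Eu-labelled anti-Tag1 and XL665-labelled anti-Tag2 were then added for 1 h, and the 665/620 nm ratio (×10^4; excitation 320 nm) was fitted to the Hill equation for IC50.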
Cc1c(-c2ccc(CNC[C@@H]3CCC(=O)N3)cc2)cccc1-c1cccc(-c2ccn3c(-c4ccc(CNC[C@@H]5CCC(=O)N5)cc4)nnc3c2)c1C [Example 74, (S)-5-((((2′,2″-dimethyl-3″-(3-(4-(((((S)-5-oxopyrrolidin-2-yl)methyl)amino)methyl)phenyl)-[1,2,4]triazolo[4,3-a]pyridin-7-yl)-[1,1′:3′,1″-terphenyl]-4-yl)methyl)amino)methyl)pyrrolidin-2-one] gave an IC50 of 10 to 100 nM. Cc1c(-c2ccc3c(c2)OCCO3)cccc1-c1ccn2c(-c3ccc(CNC[C@H](O)CO)cc3)cnc2c1 [Example 32, (S)-3-((4-(7-(3-(2,3-dihydrobenzo[b][1,4]dioxin-6-yl)-2-methylphenyl)imidazo[1,2-a]pyridin-3-yl)benzyl)amino)propane-1,2-diol] was tested, and the IC50 was 100 to 1000 nM. Cc1c(Nc2nccc3cc(CN4CC[C@@H](O)C4)cnc23)cccc1-c1cccc(-c2ccn3c(-c4ccc(CNCCO)cc4)nnc3c2)c1C [Example 81, (R)-1-((8-((3′-(3-(4-(((2-hydroxyethyl)amino)methyl)phenyl)-[1,2,4]triazolo[4,3-α]pyridin-7-yl)-2,2′-dimethyl-[1,1′-biphenyl]-3-yl)amino)-1,7-naphthyridin-3-yl)methyl)pyrrolidin-3-ol] showed an IC50 of at most 10 nM. Cc1c(-c2ccc3c(c2)OCCO3)cccc1-c1ccn2c(-c3ccc(CN4CCOCC4C(=O)O)cc3)cnc2c1 (single isomer, unassigned) [Example 34, 4-(4-(7-(3-(2,3-dihydrobenzo[b][1,4]dioxin-6-yl)-2-methylphenyl)imidazo[1,2-a]pyridin-3-yl)benzyl)morpholine-3-carboxylic acid] was tested, and the IC50 was 100 to 1000 nM. O=C1CC[C@@H](CNCc2ccc(-c3cccc(-c4cccc(-c5ccn6c(CNC[C@@H]7CCC(=O)N7)nnc6c5)c4Cl)c3Cl)cc2)N1 [Example 97, (S)-5-((((21,2″-dichloro-3″-(3-(((((S)-5-oxopyrrolidin-2-yl)methyl)amino)methyl)-[1,2,4]triazolo[4,3-α]pyridin-7-yl)-[1,1′:3′,1″-terphenyl]-4-yl)methyl)amino)methyl)pyrrolidin-2-one] was tested, and the IC50 was at most 10 nM. With Cc1c(-c2ccccc2)cccc1-c1ccn2c(-n3ccc(C(=O)NCCO)n3)cnc2c1 [Example 44, N-(2-hydroxyethyl)-1-(7-(2-methyl-[1,1′-biphenyl]-3-yl)imidazo[1,2-a]pyridin-3-yl)-1H-pyrazole-3-carboxamide] the IC50 was 100 to 1000 nM. In the case of Cc1c(-c2ccccc2)cccc1-c1ccn2c(-c3ccc(CN4C[C@H](O)C[C@H]4C(=O)O)cc3)cnc2c1 [Example 4, (2S,4R)-4-hydroxy-1-(4-(7-(2-methyl-[1,1′-biphenyl]-3-yl)imidazo[1,2-a]pyridin-3-yl)benzyl)pyrrolidine-2-carboxylic acid], the IC50 is reported as 100 to 1000 nM. Molecule Cc1c(-c2ccc3c(c2)OCCO3)cccc1-c1ccn2c(-c3ccc(C(=O)N4CCC[C@@H]4C(=O)O)cc3)cnc2c1 [Example 42, (4-(7-(3-(2,3-dihydrobenzo[b][1,4]dioxin-6-yl)-2-methylphenyl)imidazo[1,2-a]pyridin-3-yl)benzoyl)-D-proline] has an IC50 of 100 to 1000 nM. For Cc1c(-c2ccccc2)cccc1-c1ccn2c(-c3ccc(CN4CCC[C@H]4C(=O)O)cc3)cnc2c1 [Example 10, (4-(7-(2-methyl-[1,1′-biphenyl]-3-yl)imidazo[1,2-a]pyridin-3-yl)benzyl)-L-proline], the IC50 was 100 to 1000 nM. Cc1c(NC(=O)c2ccc(CNCCO)cc2)cccc1-c1cccc(-c2ccn3c(CNCCO)nnc3c2)c1C [Example 93, 4-(((2-hydroxyethyl)amino)methyl)-N-(3′-(3-(((2-hydroxyethyl)amino)methyl)-[1,2,4]triazolo[4,3-α]pyridin-7-yl)-2,2′-dimethyl-[1,1′-biphenyl]-3-yl)benzamide] showed an IC50 of 100 to 1000 nM. Cc1c(-c2ccc3c(c2)OCCO3)cccc1-c1ccn2c(-n3ccc(C(=O)NCC(=O)O)n3)nnc2c1 [Example 49, (1-(7-(3-(2,3-dihydrobenzo[b][1,4]dioxin-6-yl)-2-methylphenyl)-[1,2,4]triazolo[4,3-a]pyridin-3-yl)-1H-pyrazole-3-carbonyl)glycine] gave an IC50 of 10 to 100 nM. For Cc1c(-c2ccccc2)cccc1-c1ccn2c(-c3ccc(CN4CCC[C@H]4CO)cc3)cnc2c1 [Example 24, (S)-(1-(4-(7-(2-methyl-[1,1′-biphenyl]-3-yl)imidazo[1,2-a]pyridin-3-yl)benzyl)pyrrolidin-2-yl)methanol], the IC50 was 100 to 1000 nM. Cc1c(-c2ccc3c(c2)OCCO3)cccc1-c1ccn2c(-c3ccc(C(=O)NCC(=O)O)cc3)cnc2c1 [Example 41, (4-(7-(3-(2,3-dihydrobenzo[b][1,4]dioxin-6-yl)-2-methylphenyl)imidazo[1,2-a]pyridin-3-yl)benzoyl)glycine] showed an IC50 of 100 to 1000 nM. CC(C)(CO)NCc1ccc(-c2cccc(-c3cccc(-c4ccn5nc(CNC(C)(C)CO)nc5c4)c3Cl)c2Cl)cc1 [Example 106, 2-(((21,2″-dichloro-3″-(2-(((1-hydroxy-2-methylpropan-2-yl)amino)methyl)-[1,2,4]triazolo[1,5-a]pyridin-7-yl)-[1,1′:3′,1″-terphenyl]-4-yl)methyl)amino)-2-methylpropan-1-ol] showed an IC50 of at most 10 nM. Molecule OCCCNCc1ccc(-c2cccc(-c3cccc(-c4ccn5nc(CNCCO)nc5c4)c3Cl)c2Cl)cc1 [Example 115, 3-(((21,2″-dichloro-3″-(2-(((2-hydroxyethyl)amino)methyl)-[1,2,4]triazolo[1,5-a]pyridin-7-yl)-[1,11:31,1″-terphenyl]-4-yl)methyl)amino)propan-1-ol] has an IC50 of at most 10 nM. COc1cc(-c2cnc3cc(-c4cccc(-c5ccc6c(c5)OCCO6)c4C)ccn23)cc(OC)c1CN1CCC[C@H]1C(=O)O [Example 40, (4-(7-(3-(2,3-dihydrobenzo[b][1,4]dioxin-6-yl)-2-methylphenyl)imidazo[1,2-a]pyridin-3-yl)-2,6-dimethoxybenzyl)-L-proline] gave an IC50 of 100 to 1000 nM. Work on Cc1c(-c2ccccc2)cccc1-c1ccn2c(-c3ccc(CN4CCC[C@@H]4C(=O)O)cc3)cnc2c1 [Example 11, (4-(7-(2-methyl-[1,1′-biphenyl]-3-yl)imidazo[1,2-a]pyridin-3-yl)benzyl)-D-proline] yielded an IC50 of 100 to 1000 nM. Work on COc1cc(-c2cnc3cc(-c4cccc(-c5ccccc5)c4C)ccn23)cc(OC)c1CN1CCC[C@H]1C(=O)O [Example 21, (2,6-dimethoxy-4-(7-(2-methyl-[1,1′-biphenyl]-3-yl)imidazo[1,2-a]pyridin-3-yl)benzyl)proline] yielded an IC50 of 100 to 1000 nM. In the case of Cc1c(-c2ccccc2)cccc1-c1ccn2c(-c3ccc(CN4CC[C@H]4C(=O)O)cc3)cnc2c1 [Example 13, (S)-1-(4-(7-(2-methyl-[1,1′-biphenyl]-3-yl)imidazo[1,2-a]pyridin-3-yl)benzyl)azetidine-2-carboxylic acid], the IC50 is reported as 100 to 1000 nM. Work on Cc1c(-c2ccc3c(c2)OCCO3)cccc1-c1ccn2c(-n3ccc(C(=O)NCC(=O)O)n3)cnc2c1 [Example 48, (1-(7-(3-(2,3-dihydrobenzo[b][1,4]dioxin-6-yl)-2-methylphenyl)imidazo[1,2-a]pyridin-3-yl)-1H-pyrazole-3-carbonyl)glycine] yielded an IC50 of 10 to 100 nM. With Cc1c(-c2ccc3c(c2)OCCO3)cccc1-c1ccn2c(-c3ccc(CN4C[C@H](O)C[C@H]4C(=O)O)cc3)nnc2c1 [Example 60, (25,4R)-1-(4-(7-(3-(2,3-dihydrobenzo[b][1,4]dioxin-6-yl)-2-methylphenyl)-[1,2,4]triazolo[4,3-a]pyridin-3-yl)benzyl)-4-hydroxypyrrolidine-2-carboxylic acid] the IC50 was 100 to 1000 nM. In the case of Cc1c(NC(=O)c2ccc(CNC[C@H]3CCC(=O)N3)cn2)cccc1-c1cccc(-c2ccn3c(-c4ccc(CNC[C@H]5CCC(=O)N5)cc4)nnc3c2)c1C [Example 71, N-(2,2′-dimethyl-31-(3-(4-(((((R)-5-oxopyrrolidin-2-yl)methyl)amino)methyl)phenyl)-[1,2,4]triazolo[4,3-α]pyridin-7-yl)-[1,1′-biphenyl]-3-yl)-5-(((((R)-5-oxopyrrolidin-2-yl)methyl)amino)methyl)picolinamide], the IC50 is reported as 10 to 100 nM. Work on Cc1c(Nc2nccc3cc(CN4CC[C@@H](O)C4)cnc23)cccc1-c1cccc(-c2ccn3c(-c4ccc(CNC[C@@H]5CCC(=O)N5)cc4)nnc3c2)c1C [Example 79, (S)-5-(((4-(7-(3′-((3-(((R)-3-hydroxypyrrolidin-1-yl)methyl)-1,7-naphthyridin-8-yl)amino)-2,2′-dimethyl-[1,1′-biphenyl]-3-yl)-[1,2,4]triazolo[4,3-a]pyridin-3-yl)benzyl)amino)methyl)pyrrolidin-2-one] yielded an IC50 of at most 10 nM. Cc1c(-c2ccc3c(c2)OCCO3)cccc1-c1ccn2c(-c3ccc(CN4C[C@@H](C(=O)O)C[C@H]4O)cc3)cnc2c1 [Example 38, (3S,5R)-1-(4-(7-(3-(2,3-dihydrobenzo[b][1,4]dioxin-6-yl)-2-methylphenyl)imidazo[1,2-a]pyridin-3-yl)benzyl)-5-hydroxypyrrolidine-3-carboxylic acid] gave an IC50 of 100 to 1000 nM. Molecule CC(C)(CO)NCc1ccc(-c2cccc(-c3cccc(-c4ccn5nc(CNCCO)nc5c4)c3Cl)c2Cl)cc1 [Example 112, 2-(((2′,2″-dichloro-3″-(2-(((2-hydroxyethyl)amino)methyl)-[1,2,4]triazolo[1,5-a]pyridin-7-yl)-[1,1′:3′,1″-terphenyl]-4-yl)methyl)amino)-2-methylpropan-1-ol] has an IC50 of 10 to 100 nM. Cc1c(-c2ccccc2)cccc1-c1ccn2c(-c3ccc(CNCC(=O)O)cc3)cnc2c1 [Example 12, (4-(7-(2-methyl-[1,1′-biphenyl]-3-yl)imidazo[1,2-a]pyridin-3-yl)benzyl)glycine] was tested, and the IC50 was 100 to 1000 nM. Work on O=C(O)[C@H]1CCCN1Cc1ccc(-c2nnc3cc(-c4cccc(-c5cccc(-c6ccc(CNCCO)cc6)c5Cl)c4Cl)ccn23)cc1 [Example 67, (4-(7-(2,2′-dichloro-4″-(((2-hydroxyethyl)amino)methyl)-[1,1′:3′,1″-terphenyl]-3-yl)-[1,2,4]triazolo[4,3-a]pyridin-3-yl)benzyl)-D-proline] yielded an IC50 of at most 10 nM.
